Results taken from patent US20240115557A1, “INHIBITORS OF RNA-GUIDED NUCLEASES AND USES THEREOF” (The Brigham and Women's Hospital, Inc., priority 2022, published 2024).

What was measured:
SpCas9 = SpCas9 (Streptococcus pyogenes serotype M1, UniProt Q99ZW2); assay: Strand displacement assay (SDA) / cumulative activity assay (CAA), SpCas9 primary screen; assay type: biochemical; details: result in words
In short: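 SpCas9:gRNA RNP in 20 mM Tris-HCl pH 7.5, 100 mM KCl, 5 mM MgCl2 was used at 10 nM (2× stock) with Alexa Fluor 647-labelled substrate and excess quencher strand (1 nM and 5 nM, 2× stocks). Fluorescence was read after 2.5 h at 37 °C, where cleavage lets the quencher strand anneal.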

SpCas9 expression = assay: Immunoblotting of SpCas9 expression; assay type: cell-based; details: HEK293T and U2OS.eGFP.PEST, 24 h
Description: Approximately 500,000 U20S.eGFP.PEST cells were nucleofected as described above with 500 ng of SpCas9 plasmid. Then, cells were plated in a 12-well plate with indicated amount of compound, and incubated for 24 h. HEK293T cells were transfected with 500 ng SpCas9 plasmid as described above, and incubated with the compound for 24 h in a 24-well plate. Cells were harvested and lysed by RIPA buffer containing Protease Inhibitor Cocktail (Roche). Lysate was cleared by centrifugation at 20,000 g in 4° C., and the supernatant was taken to measure the protein concentration using BCA assay. Approximately […] of the total protein was used for immunoblotting. Rabbit anti-SpCas9 (Abcam #89380, 1:1,000 dilution) and mouse anti-a-tubulin (CST #3873, 1:2,000 dilution) were used as primary antibodies. IRDye 680RD Donkey anti-Rabbit IgG (LI-COR #925-68073, 1:10,000 dilution) and IRDye 800CW Donkey anti-Mouse IgG (LI-COR #925-32212, 1:10,000 dilution) were used as secondary antibodies.

[1] = target: SpCas9:gRNA complex and DNA (Streptococcus pyogenes serotype M1, UniProt Q99ZW2); assay: Fluorescence polarization SpCas9:PAM DNA interaction assay; assay type: binding
From the text: The fluorescence Polarization-based Assay may monitor the change in the fluorescence polarization of the fluorophore-labelled PAM-rich target DNA (e.g., a 12PAM-DNA) upon binding to [Cas9:guideRNA] complex.
Fluorescence polarization is a useful technique to monitor the interaction between two molecules, including for example, Cas9-gRNA (ribonucleoprotein) complex and target DNA (e.g., 12PAM).
Fluorescence polarization may be used to measure the binding constants and kinetics of reactions that cause a change in the rotational time of the molecules. The technique is based on the change in the tumbling rate or mass after complexation. […] The degree of binding is calculated by using the difference in anisotropy of the partially bound, free and fully bound (large excess of protein) states measured by titrating the two binding partners. […]
Development of cumulative activity assay (CAA) for SpCas9. Applicants previously reported an assay that uses fluorescence polarization (FP) to monitor the binding between a fluorophore-labeled poly-PAM DNA oligonucleotide and SpCas9 charged with a non-targeting gRNA.^17 This assay permitted screening for small molecules that interfered with the early steps of the SpCas9 catalytic mechanism, namely, binding of SpCas9 and the relatively low-affinity NGG PAM DNA sequence. […]

SpCas9:gRNA complex and DNA, sequence (Q99ZW2 whole entry, one chain of several): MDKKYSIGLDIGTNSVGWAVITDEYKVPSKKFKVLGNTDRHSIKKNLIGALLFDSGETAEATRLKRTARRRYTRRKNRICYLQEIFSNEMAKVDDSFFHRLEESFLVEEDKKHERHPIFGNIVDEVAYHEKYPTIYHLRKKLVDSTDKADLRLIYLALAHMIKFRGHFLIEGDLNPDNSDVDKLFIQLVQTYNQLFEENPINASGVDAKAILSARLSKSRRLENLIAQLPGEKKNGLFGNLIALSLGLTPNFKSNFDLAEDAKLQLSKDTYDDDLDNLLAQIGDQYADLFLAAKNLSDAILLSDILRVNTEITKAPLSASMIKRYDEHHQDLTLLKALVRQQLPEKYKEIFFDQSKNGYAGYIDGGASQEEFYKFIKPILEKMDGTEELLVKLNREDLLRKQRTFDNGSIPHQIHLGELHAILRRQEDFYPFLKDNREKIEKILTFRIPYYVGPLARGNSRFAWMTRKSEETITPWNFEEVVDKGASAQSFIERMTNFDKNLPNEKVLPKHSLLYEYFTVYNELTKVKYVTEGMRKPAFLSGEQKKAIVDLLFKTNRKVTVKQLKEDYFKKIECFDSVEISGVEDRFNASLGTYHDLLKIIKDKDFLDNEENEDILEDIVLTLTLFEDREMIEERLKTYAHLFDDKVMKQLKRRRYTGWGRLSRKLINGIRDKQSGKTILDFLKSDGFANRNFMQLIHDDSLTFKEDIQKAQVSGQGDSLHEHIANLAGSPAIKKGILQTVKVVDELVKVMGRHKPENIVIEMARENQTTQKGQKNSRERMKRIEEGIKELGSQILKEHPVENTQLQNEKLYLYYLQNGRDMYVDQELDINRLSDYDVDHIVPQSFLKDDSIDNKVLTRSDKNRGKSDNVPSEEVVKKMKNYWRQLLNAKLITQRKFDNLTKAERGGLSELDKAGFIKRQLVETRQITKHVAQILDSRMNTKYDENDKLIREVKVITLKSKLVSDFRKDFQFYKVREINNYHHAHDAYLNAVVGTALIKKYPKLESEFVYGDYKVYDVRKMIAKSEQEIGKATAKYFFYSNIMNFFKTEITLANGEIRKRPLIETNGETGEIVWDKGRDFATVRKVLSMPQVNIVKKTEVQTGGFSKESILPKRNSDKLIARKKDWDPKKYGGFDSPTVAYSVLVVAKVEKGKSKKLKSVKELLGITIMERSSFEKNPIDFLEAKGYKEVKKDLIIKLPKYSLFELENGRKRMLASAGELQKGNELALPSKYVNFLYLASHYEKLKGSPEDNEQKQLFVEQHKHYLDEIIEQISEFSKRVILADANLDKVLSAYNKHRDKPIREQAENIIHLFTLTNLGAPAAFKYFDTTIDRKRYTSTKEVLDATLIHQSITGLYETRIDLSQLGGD
SpCas9, sequence (Q99ZW2 whole entry): as the sequence (Q99ZW2 whole entry, one chain of several) above

O=C(CCS(=O)(=O)c1ccc(Cl)cc1)Nc1nc(-c2ccncc2)cs1 [BRD7586]
Inhibition of SpCas9 in CAA (SpCas9): dose-dependent inhibition
Effect on SpCas9 expression (SpCas9 expression): without altering its expression
Inhibition of binding between SpCas9:gRNA complex and DNA [1]: does not inhibit the binding
